Test results taken from patent US8642012B2, “Methods of treatment using ammonia-scavenging drugs” (Hyperion Therapeutics, Inc., priority 2008, dated 2014).
Entries after “also recorded” stand apart in the source; their conditions may differ.

Experiments:
[1] = Adult UCD patients switched from sodium PBA to equimolar HPN-100: plasma PK at steady state; assay type: in vivo, human
Excerpt: (§1) Subjects stayed on the 100% HPN-100 dose for one week and were then re-admitted to the study unit for repeated PK (Visit 11-1), ammonia and urine collections.

[2] = Overall findings across the clinical studies (conversion to urinary PAGN, tolerability); assay type: in vivo, human
Excerpt: These are followed by a biological explanation for the findings.

[3] = HPN-100 in subjects with cirrhosis (Child-Pugh A, B, C) and healthy adults: plasma PK; assay type: in vivo, human
Procedure: (§2) To determine its pharmacokinetic (PK) and pharmacodynamic (PD) profile in patients with liver disease, clinical testing was conducted in which HPN-100 was administered orally as a single dose (100 mg/kg/day on day 1), and twice daily for 7 consecutive days (200 mg/kg/day on days 8 through 14, in two doses of 100 mg/kg per dose), to subjects with hepatic impairment with cirrhosis (Child-Pugh scores of A, B, or C) and to a gender and age-matched control group of healthy adults with normal hepatic function. On day 15, subjects received a single dose of HPN-100 (100 mg/kg). PK blood samples were taken pre-dose, at 15 and 30 minutes post-dose, and at 1, 1.5, 2, 3, 4, 6, 8, 12, and 24 hours post-dose on days 1, 8, and 15, and at 48 hours after dosing on days 1 and 15. On days 9-14, blood samples were taken pre-morning dose and at 2 hours post-morning dose. Urine was collected 0-4, 4-8, 8-12, and 12-24 hours post-dose on days 1, 8, and 15, and at 24-48 hours post-dose on days 1 and 15.

[4] = ADME study of radio labeled sodium PBA or HPN-100 in cynomolgous monkeys; assay type: in vivo; details: 600 mg/kg single dose
Excerpt: These monkeys were chosen because, like humans (and unlike most other species), they metabolize PAA to PAGN and thus provide a useful model for testing prodrugs of PAA.

venous ammonia = experiment: Adult UCD patients, sodium PBA vs HPN-100: venous ammonia pharmacodynamics; assay type: in vivo, human; details: for Venous ammonia Cmaxss, Mean / Venous ammonia Cmaxss, Median / Venous ammonia TN-AUC, Mean / Venous ammonia TN-AUC, Median: N 10 UCD subjects; for Venous ammonia Cmaxss, Mean / Venous ammonia Cmaxss, Median / Venous ammonia TN-AUC, Mean / Venous ammonia TN-AUC, Median / Venous ammonia Cmaxss / Venous ammonia TN-AUC: seven days of dosing, steady state; for TN-AUC (NH3): plasma ammonia; for NH3: Total AUC / NH3 exposure: DAY (hours 6-12) / NH3 exposure: NIGHT (hours 12-24) / NH3 Cmax: equimolar rates (n=10); for NH3 Cmax: in µmol/L
Excerpt: as §1

[5] = Adult UCD patients, sodium PBA vs HPN-100: urinary PAGN excretion; assay type: in vivo, human; details: for PAGN excretion: equimolar rates (n=10)
Excerpt: as §1

[6] = HPN-100 in subjects with cirrhosis and healthy adults: urinary PAGN excretion; assay type: in vivo, human; details: for Molar % of dose ammonia scavenged, Mean (SD): after dosing on day 15 (0-48 hours)
Procedure: as §2

[7] = Adult UCD patients, sodium PBA vs HPN-100: safety and patient preference; assay type: in vivo, human; details: UCD patients (n=10)
Excerpt: as §1

[8] = healthy adults; single dose; urine collected to 24 hours
[9] = PK/PD modeling (NONMEM VI) of plasma and urinary metabolite data from the clinical studies; design: species or system human
Excerpt: Since hepatocytes and possibly enterocytes contain the enzymes necessary for conversion of PBA to PAA and conversion of PAA to PAGN and since glutamine is present in the splanchnic as well as the systemic circulation, it is likely that PBA can be converted to PAGN prior to reaching the systemic circulation (i.e. “pre-systemically”) and that this PBA is fully effective with respect to ammonia scavenging (FIG. 6); i.e. fully active. To verify this possibility, PK/PD modeling using NONMEM VI (Icon, Ellicot City, Md.) was carried out on plasma and urinary metabolite data (over 5000 data points) from the clinical studies described above involving healthy adults, subjects with cirrhosis and UCD subjects.

[10] = Single dose PK in healthy adults: plasma PBA, PAA, PAGN; assay type: in vivo, human; details: healthy volunteers, single dose 3 g/m^2/day PBA mole equivalent
Procedure: To assess its pharmacokinetic (PK) and pharmacodynamic (PD) profile, HPN-100 was administered as a single dose to 24 healthy adults. Pharmacokinetic samples were taken pre-dose and at 15 and 30 minutes post-dose and 1, 1.5, 2, 3, 4, 6, 8, 12, 24, and 48 hours post-dose.
Plasma levels of PAA, PBA, and PAGN were monitored periodically for 12-24 hours by known methods.

[11] = individual UCD patients; Brusilow 1991, Brusilow and Finkelstien 1993; cited from earlier work
[12] = UCD patients, equimolar dosages
[13] = UCD patients, not statistically significant
[14] = plasma, UCD subjects, multiple dose, PBA mole equivalent
[15] = steady state, UCD patients N = 10, arithmetic mean

O=C(CCCc1ccccc1)OCC(COC(=O)CCCc1ccccc1)OC(=O)CCCc1ccccc1 [HPN-100, glyceryl tri-[4-phenylbutyrate]]
Intact HPN-100 in blood samples ([1]; UCD patients, all blood samples): either not detectable or below the limits of quantitation | Indications of toxicity ([2]; at doses equimolar to the approved PBA dosage of 20 g/day): no indications of toxicity | Dietary protein whose waste nitrogen is eliminated per gram of drug per day ([2]; given 60-75% conversion rate): ~1.3 grams | Effect on creatinine levels ([2]; human, in vivo): little to no effect | Relationship between dose and PAGN output ([2]; up to doses of 17.4 mL): linear relationship | PK and PD in fed versus fasted state ([3]; after fasting (day 1) vs with a meal (day 8)): no PK or PD differences; also recorded: indistinguishable | Alternative metabolites PAG, PBG and PBGN in plasma ([3]; all plasma samples, all subject groups): below the limit of quantification | Intact HPN-100 in systemic circulation or in excretions [4]: essentially no HPN-100 | Venous ammonia Cmaxss, Mean (venous ammonia): 56.3 µmol/L | Venous ammonia Cmaxss, Median (venous ammonia): 60.0 µmol/L | Venous ammonia TN-AUC, Mean (venous ammonia): 26.1 µmol/L | Venous ammonia TN-AUC, Median (venous ammonia): 22.3 µmol/L | Venous ammonia Cmaxss (venous ammonia; Subject 1001): 63.0 µmol/L | Venous ammonia TN-AUC (venous ammonia; Subject 1001): 19.8 µmol/L | Venous ammonia Cmaxss (venous ammonia; Subject 1002): 31.0 µmol/L | Venous ammonia TN-AUC (venous ammonia; Subject 1002): 19.3 µmol/L | Venous ammonia Cmaxss (venous ammonia; Subject 1004): 106 µmol/L | Venous ammonia TN-AUC (venous ammonia; Subject 1004): 35.1 µmol/L | Venous ammonia Cmaxss (venous ammonia; Subject 1006): 13.0 µmol/L | Venous ammonia TN-AUC (venous ammonia; Subject 1006): 8.30 µmol/L | Venous ammonia Cmaxss (venous ammonia; Subject 2001): 33.0 µmol/L | Venous ammonia TN-AUC (venous ammonia; Subject 2001): 22.7 µmol/L | Venous ammonia Cmaxss (venous ammonia; Subject 2003): 74.0 µmol/L | Venous ammonia TN-AUC (venous ammonia; Subject 2003): 21.1 µmol/L | Venous ammonia Cmaxss (venous ammonia; Subject 3002): 36.0 µmol/L | Venous ammonia TN-AUC (venous ammonia; Subject 3002): 21.9 µmol/L | Venous ammonia Cmaxss (venous ammonia; Subject 3004): 75.0 µmol/L | Venous ammonia TN-AUC (venous ammonia; Subject 3004): 38.4 µmol/L | Venous ammonia Cmaxss (venous ammonia; Subject 5001): 57.0 µmol/L | Venous ammonia TN-AUC (venous ammonia; Subject 5001): 35.5 µmol/L | Venous ammonia Cmaxss (venous ammonia; Subject 5002): 75.2 µmol/L | Venous ammonia TN-AUC (venous ammonia; Subject 5002): 39.1 µmol/L | Mean percentage of normal ammonia values (venous ammonia; UCD patients): 83% | Peak venous ammonia concentration (venous ammonia; UCD patients): 56.3 µmol/L | Venous ammonia mean TN-AUC (venous ammonia; UCD patients): 26.1 µmol/L | Ammonia level reached in patients above about 40 μmol/L on sodium PBA (venous ammonia; UCD patients, equimolar dosages, FIG. 12): below 40 μmol/L | TN-AUC (NH3) (venous ammonia; [12]): 26.1 µM | NH3: Total AUC (venous ammonia; UCD patients): 26.1 ± 10.3 | NH3 exposure: DAY (hours 6-12) (venous ammonia; UCD patients): 32.9 | NH3 exposure: NIGHT (hours 12-24) (venous ammonia; UCD patients): 21.3 | NH3 Cmax (venous ammonia; UCD patients): 56.3 ± 27.9 | Peak venous ammonia, lowering versus sodium PBA (venous ammonia; [13]): ~29% | Venous ammonia TN-AUC, lowering versus sodium PBA (venous ammonia; [13]): ~31% | PAGN excretion [5]: Comparable | Effect of hepatic impairment on ammonia-scavenging ability ([6]; Child-Pugh groups vs healthy volunteers): no significant effect | Molar % of dose ammonia scavenged, Mean (SD) ([6]; Child-Pugh A (8)): 159.2 (60.9) Molar % | Molar % of dose ammonia scavenged, Mean (SD) ([6]; Child-Pugh B (8)): 116.3 (58.3) Molar % | Molar % of dose ammonia scavenged, Mean (SD) ([6]; Child-Pugh C (8)): 169.9 (130.1) Molar % | Molar % of dose ammonia scavenged, Mean (SD) ([6]; Healthy Adults (8)): 137.2 (43.9) Molar % | Adverse effects, number of subjects reporting [7]: 5 | Adverse effects, total number reported [7]: 15

O=C([O-])CCCc1ccccc1.[Na+] [Sodium PBA, sodium phenylbutyrate]
AUC (PBA) [1, 12]: 739 (49) μg-hr/mL | PBA AUC24 [1, 14]: 739.0 µg·h/mL | PBA Cmax [1, 14]: 141.0 µg/mL | PBA Tmax [1, 14]: 126 min | PAA in plasma Cmaxss [1, 15]: 53.0 µg/mL | PAA in plasma Cminss [1, 15]: 3.56 µg/mL | PAGN in plasma Cmaxss [1, 15]: 83.3 µg/mL | PAGN in plasma Cminss [1, 15]: 16.8 µg/mL | PBA in plasma AUC0-24 [1, 15]: 739 µg·h/mL | PBA in plasma Cmaxss [1, 15]: 141 µg/mL | PBA in plasma Cminss [1, 15]: 0.588 µg/mL | Urinary excretion of PAGN [8]: 4905 ± 1414 mg | Conversion into urinary PAGN, overall efficiency on average ([2]; oral, typical/average across clinical studies): 60-75% | Unchanged PBA as share of the administered dosage ([4]; excreted): 48% | PAGN as share of the administered radio labeled dose ([4]; urine): 23% | Absorption rate constant [9]: 1.34 h⁻¹ | Fraction of PBA converted pre-systemically (to PAA and PAGN) [9]: 1% | Venous ammonia Cmaxss, Mean (venous ammonia): 79.1 µmol/L | Venous ammonia Cmaxss, Median (venous ammonia): 83.6 µmol/L | Venous ammonia TN-AUC, Mean (venous ammonia): 38.4 µmol/L | Venous ammonia TN-AUC, Median (venous ammonia): 36.8 µmol/L | Venous ammonia Cmaxss (venous ammonia; Subject 1001): 29.0 µmol/L | Venous ammonia TN-AUC (venous ammonia; Subject 1001): 16.47 µmol/L | Venous ammonia Cmaxss (venous ammonia; Subject 1002): 31.0 µmol/L | Venous ammonia TN-AUC (venous ammonia; Subject 1002): 20.9 µmol/L | Venous ammonia Cmaxss (venous ammonia; Subject 1004): 85.0 µmol/L | Venous ammonia TN-AUC (venous ammonia; Subject 1004): 46.8 µmol/L | Venous ammonia Cmaxss (venous ammonia; Subject 1006): 150 µmol/L | Venous ammonia TN-AUC (venous ammonia; Subject 1006): 71.5 µmol/L | Venous ammonia Cmaxss (venous ammonia; Subject 2001): 88.0 µmol/L | Venous ammonia TN-AUC (venous ammonia; Subject 2001): 52.1 µmol/L | Venous ammonia Cmaxss (venous ammonia; Subject 2003): 31.0 µmol/L | Venous ammonia TN-AUC (venous ammonia; Subject 2003): 17.5 µmol/L | Venous ammonia Cmaxss (venous ammonia; Subject 3002): 108 µmol/L | Venous ammonia TN-AUC (venous ammonia; Subject 3002): 22.3 µmol/L | Venous ammonia Cmaxss (venous ammonia; Subject 3004): 115 µmol/L | Venous ammonia TN-AUC (venous ammonia; Subject 3004): 62.9 µmol/L | Venous ammonia Cmaxss (venous ammonia; Subject 5001): 82.2 µmol/L | Venous ammonia TN-AUC (venous ammonia; Subject 5001): 35.8 µmol/L | Venous ammonia Cmaxss (venous ammonia; Subject 5002): 72.2 µmol/L | Venous ammonia TN-AUC (venous ammonia; Subject 5002): 37.7 µmol/L | Mean percentage of normal ammonia values (venous ammonia; UCD patients): 58% | Peak venous ammonia concentration (venous ammonia; UCD patients): 79.1 µmol/L | Venous ammonia mean TN-AUC (venous ammonia; UCD patients): 38.4 µmol/L | TN-AUC (NH3) (venous ammonia; [12]): 38.4 µM | NH3: Total AUC (venous ammonia; UCD patients): 38.4 ± 19.6 | NH3 exposure: DAY (hours 6-12) (venous ammonia; UCD patients): 37.1 | NH3 exposure: NIGHT (hours 12-24) (venous ammonia; UCD patients): 36.3 | NH3 Cmax (venous ammonia; UCD patients): 79.1 ± 40.1 | PBA AUC24 [10]: 542.6 µg·h/mL | PBA Cmax [10]: 221.0 µg/mL | PBA Tmax [10]: 54 min | PBA T½ [10]: 42 min | Fraction excreted in the urine as PAGN [11]: 80-90% | Urine collection interval with highest PAGN output ([5]; 24 hour pattern): 6 to 12 h | Conversion into urinary PAGN ([5]; average): ~60% | PAGN excretion [5]: Comparable | Mean PAGN amount excreted, 0-6 hours ([5]; urine): 2,452,838 μg | Mean PAGN amount excreted, 0-12 hours ([5]; urine): 4,859,121 μg | Mean PAGN amount excreted, 12-24 hours ([5]; urine): 4,645,447 μg | Adverse effects, number of subjects reporting [7]: 7 | Adverse effects, total number reported [7]: 21 | Serious adverse effects [7]: 2 (symptomatic | Serious adverse effects ([7]; listed as PBA): two subjects
